Measurements published in patent US9302999B2, “Substituted triazoles as herbicides” (E. I. DU PONT DE NEMOURS AND COMPANY, priority 2012, dated 2016).

How the values were obtained:
Type in all cases: in vivo
[1] = tested on: wheat (Triticum aestivum); assay: Test A pre-/postemergence: wheat; settings: for Wheat plant response rating: Postemergence; for Plant response rating, Wheat: Preemergence
How it was run: (§1)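 Each species received preemergence soil-directed spraying and, at the same time, postemergence treatment of seedlings 2–10 cm tall. Formulation: non-phytotoxic solvent mixture including surfactant. Response assessed visually about ten days on, relative to untreated controls, 0–100 scale.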

[2] = tested on: pigweed (Amaranthus retroflexus); assay: Test A pre-/postemergence: pigweed; settings: for Pigweed plant response rating: Postemergence; for Plant response rating, Pigweed: Preemergence
How it was run: as §1

[3] = tested on: barnyardgrass (Echinochloa crus-galli); assay: Test A pre-/postemergence: barnyardgrass; settings: for Barnyardgrass plant response rating: Postemergence; for Plant response rating, Barnyardgrass: Preemergence
How it was run: as §1

[4] = tested on: ducksalad (Heteranthera limosa); assay: Test C flooded paddy test: ducksalad; settings: scale 0 to 100 (0 no effect, 100 complete control)
Description: (§2) Plant species in the flooded paddy test consisted of rice (Oryza sativa), sedge, umbrella (small-flower umbrella sedge, Cyperus difformis), ducksalad (Heteranthera limosa) and barnyardgrass (Echinochloa crus-galli) grown to the 2-leaf stage for testing. At time of treatment, test pots were flooded to 3 cm above the soil surface, treated by application of test compounds directly to the paddy water, and then maintained at that water depth for the duration of the test.
(§3) Treated plants and controls were maintained in a greenhouse for 13 to 15 days, after which time all species were compared to controls and visually evaluated. Plant response ratings, summarized in Table C, are based on a scale of 0 to 100 where 0 is no effect and 100 is complete control. A dash (-) response means no test result.

rice (Oryza sativa) = assay: Test C flooded paddy test: rice; settings: scale 0 to 100 (0 no effect, 100 complete control)
Description: as §2, §3

[5] = tested on: barnyardgrass (Echinochloa crus-galli); assay: Test C flooded paddy test: barnyardgrass; settings: scale 0 to 100 (0 no effect, 100 complete control)
Description: as §2, §3

[6] = tested on: foxtail, giant (giant foxtail, Setaria faberii); assay: Test A pre-/postemergence: foxtail, giant; settings: for Foxtail, Giant plant response rating: Postemergence; for Plant response rating, Foxtail, Giant: Preemergence
How it was run: as §1

[7] = tested on: morningglory (Ipomoea spp.); assay: Test A pre-/postemergence: morningglory; settings: for Morningglory plant response rating: Postemergence; for Plant response rating, Morningglory: Preemergence
How it was run: as §1

corn (Zea mays) = assay: Test A pre-/postemergence: corn; settings: for Corn plant response rating: Postemergence; for Plant response rating, Corn: Preemergence
How it was run: as §1

[8] = tested on: crabgrass, large (large crabgrass, Digitaria sanguinalis); assay: Test A pre-/postemergence: crabgrass, large; settings: for Crabgrass, Large plant response rating: Postemergence; for Plant response rating, Crabgrass, Large: Preemergence
How it was run: as §1

[9] = tested on: velvetleaf (Abutilon theophrasti); assay: Test A pre-/postemergence: velvetleaf; settings: for Velvetleaf plant response rating: Postemergence; for Plant response rating, Velvetleaf: Preemergence
How it was run: as §1

[10] = tested on: sedge, umbrella (small-flower umbrella sedge, Cyperus difformis); assay: Test C flooded paddy test: sedge, umbrella; settings: scale 0 to 100 (0 no effect, 100 complete control)
How it was run: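 Rating: visual, 0–100 (100 = complete control), versus untreated controls after 13 to 15 greenhouse days. Treatment went into paddy water held at 3 cm over the soil, on plants grown to two leaves.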

[11] = 125 g ai/ha, 0 to 100 scale, 0 is no effect, 100 is complete control
[12] = 500 g ai/ha, visual rating on 0 to 100 scale (0 no effect, 100 complete control), approximately ten days
[13] = 125 g ai/ha, 0 to 100 scale (0 no effect, 100 complete control)
[14] = 500 g ai/ha, 0 to 100 scale, 0 is no effect, 100 is complete control
[15] = Flood (flooded paddy test), 62 g ai/ha, visual rating after 13 to 15 days
[16] = Flood (flooded paddy test), 250 g ai/ha, visual rating after 13 to 15 days
[17] = Flood (flooded paddy test), 125 g ai/ha, visual rating after 13 to 15 days

Cc1nn(-c2ccc(C(F)(F)F)cc2)nc1Cn1ccc(C(F)(F)C(F)(F)F)n1 [Compound 12]
Wheat plant response rating [1, 11]: 10
Wheat plant response rating [1, 12]: 30
Plant response rating, Wheat [1, 13]: 0
Plant response rating, Wheat [1, 14]: 0
Pigweed plant response rating [2, 11]: 100
Pigweed plant response rating [2, 12]: 100
Plant response rating, Pigweed [2, 13]: 80
Plant response rating, Pigweed [2, 14]: 100
Barnyardgrass plant response rating [3, 11]: 30
Barnyardgrass plant response rating [3, 12]: 80
Plant response rating, Barnyardgrass [3, 13]: 30
Plant response rating, Barnyardgrass [3, 14]: 80
Plant response rating, Ducksalad [4, 15]: 60
Plant response rating, Ducksalad [4, 16]: 70
Plant response rating, Rice (rice (Oryza sativa); [15]): 0
Plant response rating, Rice (rice (Oryza sativa); [16]): 25
Plant response rating, Barnyardgrass [5, 15]: 40
Plant response rating, Barnyardgrass [5, 16]: 60
Foxtail, Giant plant response rating [6, 11]: 50
Foxtail, Giant plant response rating [6, 12]: 70
Plant response rating, Foxtail, Giant [6, 13]: 80
Plant response rating, Foxtail, Giant [6, 14]: 100
Morningglory plant response rating [7, 11]: 70
Morningglory plant response rating [7, 12]: 100
Plant response rating, Morningglory [7, 13]: 10
Plant response rating, Morningglory [7, 14]: 40
Corn plant response rating (corn (Zea mays); [11]): 20
Corn plant response rating (corn (Zea mays); [12]): 30
Plant response rating, Corn (corn (Zea mays); [13]): 0
Plant response rating, Corn (corn (Zea mays); [14]): 10
Crabgrass, Large plant response rating [8, 11]: 50
Crabgrass, Large plant response rating [8, 12]: 90
Plant response rating, Crabgrass, Large [8, 13]: 90
Plant response rating, Crabgrass, Large [8, 14]: 100
Velvetleaf plant response rating [9, 11]: 70
Velvetleaf plant response rating [9, 12]: 100
Plant response rating, Velvetleaf [9, 13]: 60
Plant response rating, Velvetleaf [9, 14]: 70
Plant response rating, Sedge, Umbrella [10, 15]: 50
Plant response rating, Sedge, Umbrella [10, 16]: 80

Cc1nn(-c2ccc(C(F)(F)F)cn2)nc1Cn1nc(C(F)(F)F)cc1C [Compound 21]
Wheat plant response rating [1, 11]: 0
Wheat plant response rating [1, 12]: 0
Plant response rating, Wheat [1, 13]: 0
Plant response rating, Wheat [1, 14]: 0
Pigweed plant response rating [2, 11]: 60
Pigweed plant response rating [2, 12]: 80
Plant response rating, Pigweed [2, 13]: 0
Plant response rating, Pigweed [2, 14]: 50
Barnyardgrass plant response rating [3, 11]: 0
Barnyardgrass plant response rating [3, 12]: 10
Plant response rating, Barnyardgrass [3, 13]: 0
Plant response rating, Barnyardgrass [3, 14]: 10
Plant response rating, Ducksalad [4, 15]: 0
Plant response rating, Ducksalad [4, 17]: 0
Plant response rating, Ducksalad [4, 16]: 0
Plant response rating, Ducksalad ([4]; Flood, 31 g ai/ha): 0
Plant response rating, Rice (rice (Oryza sativa); [15]): 0
Plant response rating, Rice (rice (Oryza sativa); [17]): 0
Plant response rating, Rice (rice (Oryza sativa); [16]): 0
Plant response rating, Rice (rice (Oryza sativa); Flood, 31 g ai/ha): 0
Plant response rating, Barnyardgrass [5, 15]: 0
Plant response rating, Barnyardgrass [5, 17]: 0
Plant response rating, Barnyardgrass [5, 16]: 0
Plant response rating, Barnyardgrass ([5]; Flood, 31 g ai/ha): 0
Foxtail, Giant plant response rating [6, 11]: 0
Foxtail, Giant plant response rating [6, 12]: 10
Plant response rating, Foxtail, Giant [6, 13]: 0
Plant response rating, Foxtail, Giant [6, 14]: 30
Morningglory plant response rating [7, 11]: 20
Morningglory plant response rating [7, 12]: 40
Plant response rating, Morningglory [7, 13]: 0
Plant response rating, Morningglory [7, 14]: 0
Corn plant response rating (corn (Zea mays); [11]): 0
Corn plant response rating (corn (Zea mays); [12]): 10
Plant response rating, Corn (corn (Zea mays); [13]): 0
Plant response rating, Corn (corn (Zea mays); [14]): 0
Crabgrass, Large plant response rating [8, 11]: 20
Crabgrass, Large plant response rating [8, 12]: 40
Plant response rating, Crabgrass, Large [8, 13]: 0
Plant response rating, Crabgrass, Large [8, 14]: 60
Velvetleaf plant response rating [9, 11]: 10
Velvetleaf plant response rating [9, 12]: 20
Plant response rating, Velvetleaf [9, 13]: 0
Plant response rating, Velvetleaf [9, 14]: 0
Plant response rating, Sedge, Umbrella [10, 15]: 0
Plant response rating, Sedge, Umbrella [10, 17]: 0
Plant response rating, Sedge, Umbrella [10, 16]: 0
Plant response rating, Sedge, Umbrella ([10]; Flood, 31 g ai/ha): 0

Cc1nn(-c2ccncc2)nc1C(=O)c1cccc(C(F)(F)F)c1 [Compound 22]
Wheat plant response rating [1, 11]: 10
Plant response rating, Wheat [1, 13]: 0
Plant response rating, Wheat [1, 14]: 0
Pigweed plant response rating [2, 11]: 50
Pigweed plant response rating [2, 12]: 80
Plant response rating, Pigweed [2, 13]: 10
Plant response rating, Pigweed [2, 14]: 10
Barnyardgrass plant response rating [3, 11]: 10
Barnyardgrass plant response rating [3, 12]: 20
Plant response rating, Barnyardgrass [3, 13]: 0
Plant response rating, Barnyardgrass [3, 14]: 10
Plant response rating, Ducksalad [4, 15]: 0
Plant response rating, Ducksalad [4, 17]: 0
Plant response rating, Ducksalad [4, 16]: 0
Plant response rating, Ducksalad ([4]; Flood, 31 g ai/ha): 0
Plant response rating, Rice (rice (Oryza sativa); [15]): 0
Plant response rating, Rice (rice (Oryza sativa); [17]): 0
Plant response rating, Rice (rice (Oryza sativa); [16]): 0
Plant response rating, Rice (rice (Oryza sativa); Flood, 31 g ai/ha): 0
Plant response rating, Barnyardgrass [5, 15]: 0
Plant response rating, Barnyardgrass [5, 17]: 0
Plant response rating, Barnyardgrass [5, 16]: 0
Plant response rating, Barnyardgrass ([5]; Flood, 31 g ai/ha): 0
Foxtail, Giant plant response rating [6, 11]: 20
Foxtail, Giant plant response rating [6, 12]: 50
Plant response rating, Foxtail, Giant [6, 13]: 20
Plant response rating, Foxtail, Giant [6, 14]: 80
Morningglory plant response rating [7, 11]: 10
Morningglory plant response rating [7, 12]: 20
Plant response rating, Morningglory [7, 13]: 0
Plant response rating, Morningglory [7, 14]: 0
Corn plant response rating (corn (Zea mays); [11]): 10
Corn plant response rating (corn (Zea mays); [12]): 20
Plant response rating, Corn (corn (Zea mays); [13]): 0
Plant response rating, Corn (corn (Zea mays); [14]): 0
Crabgrass, Large plant response rating [8, 11]: 40
Crabgrass, Large plant response rating [8, 12]: 60
Plant response rating, Crabgrass, Large [8, 13]: 10
Plant response rating, Crabgrass, Large [8, 14]: 40
Velvetleaf plant response rating [9, 11]: 10
Velvetleaf plant response rating [9, 12]: 30
Plant response rating, Velvetleaf [9, 13]: 0
Plant response rating, Velvetleaf [9, 14]: 0
Plant response rating, Sedge, Umbrella [10, 15]: 0
Plant response rating, Sedge, Umbrella [10, 17]: 0
Plant response rating, Sedge, Umbrella [10, 16]: 0
Plant response rating, Sedge, Umbrella ([10]; Flood, 31 g ai/ha): 0

COc1nn(-c2ccc(C(F)(F)F)cc2)nc1Cc1cccc(C(F)(F)F)c1 [Compound 29]
Wheat plant response rating [1, 11]: 0
Wheat plant response rating [1, 12]: 30
Plant response rating, Wheat [1, 13]: 0
Plant response rating, Wheat [1, 14]: 0
Pigweed plant response rating [2, 11]: 100
Pigweed plant response rating [2, 12]: 100
Plant response rating, Pigweed [2, 13]: 50
Plant response rating, Pigweed [2, 14]: 90
Barnyardgrass plant response rating [3, 11]: 20
Barnyardgrass plant response rating [3, 12]: 40
Plant response rating, Barnyardgrass [3, 13]: 10
Plant response rating, Barnyardgrass [3, 14]: 50
Plant response rating, Ducksalad [4, 15]: 0
Plant response rating, Ducksalad [4, 17]: 0
Plant response rating, Ducksalad [4, 16]: 0
Plant response rating, Ducksalad ([4]; Flood, 31 g ai/ha): 0
Plant response rating, Rice (rice (Oryza sativa); [15]): 0
Plant response rating, Rice (rice (Oryza sativa); [17]): 0
Plant response rating, Rice (rice (Oryza sativa); [16]): 0
Plant response rating, Rice (rice (Oryza sativa); Flood, 31 g ai/ha): 0
Plant response rating, Barnyardgrass [5, 15]: 0
Plant response rating, Barnyardgrass [5, 17]: 0
Plant response rating, Barnyardgrass [5, 16]: 20
Plant response rating, Barnyardgrass ([5]; Flood, 31 g ai/ha): 0
Foxtail, Giant plant response rating [6, 11]: 60
Foxtail, Giant plant response rating [6, 12]: 90
Plant response rating, Foxtail, Giant [6, 13]: 80
Plant response rating, Foxtail, Giant [6, 14]: 100
Morningglory plant response rating [7, 11]: 80
Morningglory plant response rating [7, 12]: 100
Plant response rating, Morningglory [7, 13]: 0
Plant response rating, Morningglory [7, 14]: 10
Corn plant response rating (corn (Zea mays); [11]): 20
Corn plant response rating (corn (Zea mays); [12]): 20
Plant response rating, Corn (corn (Zea mays); [13]): 0
Plant response rating, Corn (corn (Zea mays); [14]): 0
Crabgrass, Large plant response rating [8, 11]: 90
Crabgrass, Large plant response rating [8, 12]: 90
Plant response rating, Crabgrass, Large [8, 13]: 90
Plant response rating, Crabgrass, Large [8, 14]: 100
Velvetleaf plant response rating [9, 11]: 60
Velvetleaf plant response rating [9, 12]: 80
Plant response rating, Velvetleaf [9, 13]: 0
Plant response rating, Velvetleaf [9, 14]: 50
Plant response rating, Sedge, Umbrella [10, 15]: 60
Plant response rating, Sedge, Umbrella [10, 17]: 70
Plant response rating, Sedge, Umbrella [10, 16]: 75
Plant response rating, Sedge, Umbrella ([10]; Flood, 31 g ai/ha): 50
